For this assay, the target named is T1, ASIC1a (Homo sapiens, UniProt P78348).
T1 sequence (P78348 1-528): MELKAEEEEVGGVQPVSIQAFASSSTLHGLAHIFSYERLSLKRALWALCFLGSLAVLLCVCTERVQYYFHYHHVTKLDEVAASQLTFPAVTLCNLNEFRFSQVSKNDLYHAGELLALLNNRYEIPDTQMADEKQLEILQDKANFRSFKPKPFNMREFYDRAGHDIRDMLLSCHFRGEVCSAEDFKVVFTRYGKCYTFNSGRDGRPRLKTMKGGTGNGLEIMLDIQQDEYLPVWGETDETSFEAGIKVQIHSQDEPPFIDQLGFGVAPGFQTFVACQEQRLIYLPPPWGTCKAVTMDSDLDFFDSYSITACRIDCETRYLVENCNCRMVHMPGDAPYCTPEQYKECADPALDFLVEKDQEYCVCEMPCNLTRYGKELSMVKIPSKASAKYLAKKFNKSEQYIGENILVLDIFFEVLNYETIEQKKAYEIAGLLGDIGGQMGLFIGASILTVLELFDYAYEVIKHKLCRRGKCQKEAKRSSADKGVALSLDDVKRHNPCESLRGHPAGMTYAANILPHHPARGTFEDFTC
Description: Calcium-imaging (FLIPR) of MES-induced calcium response in ASIC1a expressing HEK293 cells. Also noted: host or cells: HEK293. The assay is classed as cell-based. On the procedure: Identification of ASIC Antagonists Using Calcium-Imaging
ASIC1a expressing HEK293 cells are grown in culture medium (DMEM with 10% FBS), in polystyrene culture flasks (175 mm 2) at 37° C. in a humidified atmosphere of 5% CO2. Confluency of cells should be 80-90% on day of plating. Cells are rinsed with 10 ml of PBS and cells are re-suspended by addition of culture medium and trituration with a 25 ml pipette.
The cells are seeded at a density of approximately 1×10^6 cells/ml (100 μl/well) in black-walled, clear bottom, 96-well plates pre-treated with 10 mg/l poly-D-lysin (75 μl/well for ≧30 min). Plated cells are allowed to proliferate for 24 h before loading with dye.
Loading with Fluorescent Calcium Dye Fluo-4/AM
Fluo-4/AM (1 mg, Molecular Probes) is dissolved in 912 μl DMSO. The Fluo-4/AM stock solution (1 mM) is diluted with culture medium to a final concentration of 2 μM (loading solution).
The culture medium is aspirated from the wells, and 50 μl of the Fluo-4/AM loading solution is added to each well. The cells are incubated at 37° C. for 30 min.
After the loading period, the loading solution is aspirated and the cells are washed twice with 100 μl modified Assay Buffer (145 mM NaCl, 5 mM KCl, 5 mM CaCl2, 1 mM MgCl2, 10 mM HEPES, pH 7.4) to remove extracellular dye. Following the second wash, 100 μl modified Assay Buffer is added to each well and the fluorescence is measured in FLIPR™ or FlexStation™ (Molecular Devices, USA), or any other suitable equipment known to the skilled in the art.
Temperature: Room temperature (20-22° C.)
First addition: 50 μl test solution at a rate of 30 μl/sec and a starting height of […]
Second addition: 50 μl MES solution (20 mM, 5 mM final concentration) at a rate of 35 μl/sec and a starting height of 150 μl.
Reading intervals: pre-incubation—10 sec×7 and 3 sec×3 antagonist phase—3 sec×17 and 10 sec×12
Addition plates (compound test plate and MES plate) are placed on the right and left positions in the FLIPR tray, respectively. Cell plates are placed in the middle position and the ASIC1a program is effectuated. FLIPR will then take the appropriate measurements in accordance with the interval settings above. Fluorescence obtained after stimulation is corrected for the mean basal fluorescence (in modified Assay Buffer).
Hit Confirmation and Characterization of Active Substances
The MES-induced peak calcium response, in the presence of test substance, is expressed relatively to the MES response alone. Test substances that block the MES-induced calcium response are re-tested in triplicates. […]

Structures are written as SMILES. pIC50: −log10 of the molar value.

As to `CCN1CCc2c(-c3cc(Cl)ccc3OC)cc(C#N)c(N)c2C1` [Compound 44], the pIC50 was greater than 5.00.

The values are drawn from US20080004282A1, “Compositions and methods for modulating gated ion channels” (PainCeptor Pharma Corporation, priority 2006, published 2008).
